Source: the NIST ThermoML archive (doi:10.1016/j.jct.2017.07.008)
Values joined by “and” are separate entries in the source; they are usually repeats but may differ in a detail not shown here. Equal entries are not always repeated.

Conditions: for surface tension liquid-gas: Drop volume; for viscosity / speed of sound / mass density: Liquid; for viscosity: Capillary tube (Ostwald / Ubbelohde) method; for speed of sound: Frequency=3 MHz, Single path-length method; for mass density: Vibrating tube method

OCc1cccs1 [2-thiophenemethanol]
Conditions | surface tension liquid-gas [mN/m]
283.15 K | 45.2
285.65 K | 44.93
288.15 K | 44.61
290.65 K | 44.39
293.15 K | 44.13
295.65 K | 43.83
298.15 K | 43.56
300.65 K | 43.29
303.15 K | 43.04
305.65 K | 42.78
308.15 K | 42.54
310.65 K | 42.27
313.15 K | 41.96

Conditions | mass density | speed of sound [m/s] | viscosity [mPa·s]
283.15 K, 100 kPa | 1215.5 kg/m3 | 1545.7 | 13.16
283.15 K, 2000 kPa | 1216.47 kg/m3 | – | –
283.15 K, 5000 kPa | 1217.99 kg/m3 | – | –
283.15 K, 7000 kPa | 1218.98 kg/m3 | – | –
283.15 K, 10000 kPa | 1220.46 kg/m3 | – | –
283.15 K, 15000 kPa | 1222.87 kg/m3 | – | –
283.15 K, 20000 kPa | 1225.22 kg/m3 | – | –
283.15 K, 25000 kPa | 1227.52 kg/m3 | – | –
283.15 K, 30000 kPa | 1229.77 kg/m3 | – | –
283.15 K, 35000 kPa | 1231.96 kg/m3 | – | –
283.15 K, 40000 kPa | 1234.11 kg/m3 | – | –
283.15 K, 45000 kPa | 1236.21 kg/m3 | – | –
283.15 K, 50000 kPa | 1238.27 kg/m3 | – | –
283.15 K, 55000 kPa | 1240.29 kg/m3 | – | –
283.15 K, 60000 kPa | 1242.27 kg/m3 | – | –
283.15 K, 65000 kPa | 1244.21 kg/m3 | – | –
285.65 K, 100 kPa | 1213.3 kg/m3 | 1538.2 | 11.81
288.15 K, 100 kPa | 1211.11 kg/m3 and 1211.08 kg/m3 | 1530.8 | 10.6
288.15 K, 2000 kPa | 1212.1 kg/m3 | – | –
288.15 K, 5000 kPa | 1213.64 kg/m3 | – | –
288.15 K, 7000 kPa | 1214.66 kg/m3 | – | –
288.15 K, 10000 kPa | 1216.16 kg/m3 | – | –
288.15 K, 15000 kPa | 1218.62 kg/m3 | – | –
288.15 K, 20000 kPa | 1221.01 kg/m3 | – | –
288.15 K, 25000 kPa | 1223.35 kg/m3 | – | –
288.15 K, 30000 kPa | 1225.64 kg/m3 | – | –
288.15 K, 35000 kPa | 1227.87 kg/m3 | – | –
288.15 K, 40000 kPa | 1230.06 kg/m3 | – | –
288.15 K, 45000 kPa | 1232.19 kg/m3 | – | –
288.15 K, 50000 kPa | 1234.29 kg/m3 | – | –
288.15 K, 55000 kPa | 1236.34 kg/m3 | – | –
288.15 K, 60000 kPa | 1238.35 kg/m3 | – | –
288.15 K, 65000 kPa | 1240.32 kg/m3 | – | –
290.65 K, 100 kPa | 1208.87 kg/m3 | 1523.4 | 9.578
293.15 K, 100 kPa | 1206.69 kg/m3 and 1206.66 kg/m3 | 1516 | 8.703
293.15 K, 2000 kPa | 1207.7 kg/m3 | – | –
293.15 K, 5000 kPa | 1209.28 kg/m3 | – | –
293.15 K, 7000 kPa | 1210.32 kg/m3 | – | –
293.15 K, 10000 kPa | 1211.85 kg/m3 | – | –
293.15 K, 15000 kPa | 1214.36 kg/m3 | – | –
293.15 K, 20000 kPa | 1216.8 kg/m3 | – | –
293.15 K, 25000 kPa | 1219.18 kg/m3 | – | –
293.15 K, 30000 kPa | 1221.5 kg/m3 | – | –
293.15 K, 35000 kPa | 1223.78 kg/m3 | – | –
293.15 K, 40000 kPa | 1226 kg/m3 | – | –
293.15 K, 45000 kPa | 1228.17 kg/m3 | – | –
293.15 K, 50000 kPa | 1230.29 kg/m3 | – | –
293.15 K, 55000 kPa | 1232.38 kg/m3 | – | –
293.15 K, 60000 kPa | 1234.42 kg/m3 | – | –
293.15 K, 65000 kPa | 1236.41 kg/m3 | – | –
295.65 K, 100 kPa | 1204.45 kg/m3 | 1508.6 | 7.913
298.15 K, 100 kPa | 1202.27 kg/m3 and 1202.23 kg/m3 | 1501.2 | 7.23
298.15 K, 2000 kPa | 1203.3 kg/m3 | – | –
298.15 K, 5000 kPa | 1204.91 kg/m3 | – | –
298.15 K, 7000 kPa | 1205.97 kg/m3 | – | –
298.15 K, 10000 kPa | 1207.53 kg/m3 | – | –
298.15 K, 15000 kPa | 1210.08 kg/m3 | – | –
298.15 K, 20000 kPa | 1212.57 kg/m3 | – | –
298.15 K, 25000 kPa | 1215 kg/m3 | – | –
298.15 K, 30000 kPa | 1217.36 kg/m3 | – | –
298.15 K, 35000 kPa | 1219.67 kg/m3 | – | –
298.15 K, 40000 kPa | 1221.93 kg/m3 | – | –
298.15 K, 45000 kPa | 1224.14 kg/m3 | – | –
298.15 K, 50000 kPa | 1226.3 kg/m3 | – | –
298.15 K, 55000 kPa | 1228.41 kg/m3 | – | –
298.15 K, 60000 kPa | 1230.48 kg/m3 | – | –
298.15 K, 65000 kPa | 1232.51 kg/m3 | – | –
300.65 K, 100 kPa | 1200.01 kg/m3 | 1493.9 | 6.607
303.15 K, 100 kPa | 1197.82 kg/m3 and 1197.79 kg/m3 | 1486.6 | 6.079
303.15 K, 2000 kPa | 1198.88 kg/m3 | – | –
303.15 K, 5000 kPa | 1200.52 kg/m3 | – | –
303.15 K, 7000 kPa | 1201.6 kg/m3 | – | –
303.15 K, 10000 kPa | 1203.2 kg/m3 | – | –
303.15 K, 15000 kPa | 1205.8 kg/m3 | – | –
303.15 K, 20000 kPa | 1208.33 kg/m3 | – | –
303.15 K, 25000 kPa | 1210.8 kg/m3 | – | –
303.15 K, 30000 kPa | 1213.21 kg/m3 | – | –
303.15 K, 35000 kPa | 1215.57 kg/m3 | – | –
303.15 K, 40000 kPa | 1217.86 kg/m3 | – | –
303.15 K, 45000 kPa | 1220.11 kg/m3 | – | –
303.15 K, 50000 kPa | 1222.3 kg/m3 | – | –
303.15 K, 55000 kPa | 1224.45 kg/m3 | – | –
303.15 K, 60000 kPa | 1226.55 kg/m3 | – | –
303.15 K, 65000 kPa | 1228.61 kg/m3 | – | –
305.65 K, 100 kPa | 1195.57 kg/m3 | 1479.3 | 5.609
308.15 K, 100 kPa | 1193.36 kg/m3 and 1193.34 kg/m3 | 1472 | 5.18
308.15 K, 2000 kPa | 1194.44 kg/m3 | – | –
308.15 K, 5000 kPa | 1196.12 kg/m3 | – | –
308.15 K, 7000 kPa | 1197.22 kg/m3 | – | –
308.15 K, 10000 kPa | 1198.85 kg/m3 | – | –
308.15 K, 15000 kPa | 1201.5 kg/m3 | – | –
308.15 K, 20000 kPa | 1204.09 kg/m3 | – | –
308.15 K, 25000 kPa | 1206.61 kg/m3 | – | –
308.15 K, 30000 kPa | 1209.06 kg/m3 | – | –
308.15 K, 35000 kPa | 1211.45 kg/m3 | – | –
308.15 K, 40000 kPa | 1213.79 kg/m3 | – | –
308.15 K, 45000 kPa | 1216.07 kg/m3 | – | –
308.15 K, 50000 kPa | 1218.3 kg/m3 | – | –
308.15 K, 55000 kPa | 1220.48 kg/m3 | – | –
308.15 K, 60000 kPa | 1222.62 kg/m3 | – | –
308.15 K, 65000 kPa | 1224.71 kg/m3 | – | –
310.65 K, 100 kPa | 1191.11 kg/m3 | 1464.8 | 4.795
313.15 K, 100 kPa | 1188.89 kg/m3 and 1188.87 kg/m3 | 1457.6 | 4.455
313.15 K, 2000 kPa | 1189.99 kg/m3 | – | –
313.15 K, 5000 kPa | 1191.7 kg/m3 | – | –
313.15 K, 7000 kPa | 1192.83 kg/m3 | – | –
313.15 K, 10000 kPa | 1194.49 kg/m3 | – | –
313.15 K, 15000 kPa | 1197.2 kg/m3 | – | –
313.15 K, 20000 kPa | 1199.83 kg/m3 | – | –
313.15 K, 25000 kPa | 1202.4 kg/m3 | – | –
313.15 K, 30000 kPa | 1204.9 kg/m3 | – | –
313.15 K, 35000 kPa | 1207.33 kg/m3 | – | –
313.15 K, 40000 kPa | 1209.71 kg/m3 | – | –
313.15 K, 45000 kPa | 1212.03 kg/m3 | – | –
313.15 K, 50000 kPa | 1214.3 kg/m3 | – | –
